{"source": "patent US20090163567A1", "about": "(priority 2005, published 2009)", "key": {"cucumber downy mildew [1]": {"test_system": "cucumber downy mildew", "assay": "Test on preventive effect against cucumber downy mildew", "format": "in vivo, Cucumber (cultivar: Sagamihanshirofushinari)", "experimental": "Cucumber (cultivar: Sagamihanshirofushinari) was cultivated in a polyethylene pot having a diameter of 7.5 cm, and when the cucumber reached two-leaf stage, a drug solution having the respective test compounds adjusted to the predetermined concentrations (applied amount: 1000 L/ha), was applied by means of a spray gun. After the applied solution dried, the cucumber was sprayed and inoculated with a suspension of spores of cucumber downy mildew and kept in a humidified chamber at 20° C. for 20 hours. Thereafter, the cucumber was kept in a thermostatic chamber at 20° C. for 7 days, whereupon the lesion area rate was obtained. Here, the lesion area rate is a value obtained in such a manner that lesion area of Downy Mildew of specimen leaves was obtained by visual examination, and its ratio to the total area of specimen leaves is shown by percent.\n(§1) The lesion area ratio in non-treated area was obtained in the same manner as in the treated area except that instead of the drug solution, water was applied by means of a spray gun.\n(§2) Further, a theoretical value can be calculated by the Colby formula. If the experimental value is lower than the theoretical value by the Colby formula, the fungicidal composition for agricultural or horticultural use of the present invention has a synergistic effect for controlling the plant disease. In this context, the theoretical values by the Colby formula are also shown in brackets ( ) in Tables 1 and 2."}, "cucumber downy mildew [2]": {"test_system": "cucumber downy mildew", "assay": "Test on curative effect against cucumber downy mildew", "format": "in vivo, Cucumber (cultivar: Sagamihanshirofushinari)", "experimental": "Cucumber (cultivar: Sagamihanshirofushinari) was cultivated in a polyethylene pot having a diameter of 7.5 cm, and when it reached two-leaf stage, the cucumber was sprayed and inoculated with a suspension of spores of cucumber downy mildew and kept in a humidified chamber at 20° C. for 20 hours. Then, after drying the crop plant, a drug solution having the respective test compounds adjusted to the predetermined concentrations, was applied in a sufficient amount (20 ml) by means of a spray gun. After the sprayed solution dried, it was kept in a thermostatic chamber at 20° C. for 5 days, whereupon the lesion area ratio was obtained. The results are shown in is Tables 3 and 4.\nas §1\nas §2, with “3” for “1”, “4.” for “2.”"}, "tomato late blight [3]": {"test_system": "tomato late blight", "format": "in vivo, Tomato (cultivar: Ponderosa)"}, "tomato late blight [4]": {"test_system": "tomato late blight", "format": "in vivo, Tomato (cultivar: Ponderosa)", "conditions": "Test Example 4 (curative)"}, "Grape Downy Mildew": {"test_system": "Grape Downy Mildew", "assay": "Test on preventive effect against grape downy mildew (leaf disks test)", "format": "in vivo, grapes (cultivar: Neomuscat)", "excerpt": "Leaf disks having a diameter of 1 cm were punched out with leaf puncher from leaves of grapes (cultivar: Neomuscat), and a drug solution having the respective test compounds adjusted to the predetermined concentrations (applied amount: 500 L/ha), was applied to the leaf disks by means of an indoor spray equipment. After the applied solution dried, the leaf disks were transferred to petri dishes having a diameter of 3 cm, a suspension of zoosporangium of Grape Downy Mildew was dropwise applied, and the leaf disks were inoculated. They were kept in a chamber at 20° C. for 10 days. Then, the disease severity index of each disk was investigated by the following standards, and the disease severity was obtained by the following formula.\nThe disease severity in non-treated area was obtained in the same manner as in the treated area except that instead of the drug solution, water was applied by means of an auto sprayer.\nDisease outbreak index 0: No sporogenesis is observed.\nDisease severity index 1: The sporogenesis area is less than 10% of the drop area.\nDisease severity index 2: The sporogenesis area is from 10% to less than 50% of the drop area.\nDisease severity index 3: The sporogenesis area is from 50% to less than 90% of the drop area.\nDisease severity index 4: The sporogenesis area is at least 90% of the drop area.\nDisease severity=[(0×A+1×B+2×C+3×D+4×E)/{4×(A+B+C+D+E)}]×100\nwhere A is the number of disks with disease severity index 0, B is the number of disks with disease severity index 1, C is the number of disks with disease severity index 2, D is the number of disks with disease severity index 3, and E is the number of disks with disease severity index 4.\nas §2, with “9” for “1”, “10.” for “2.”"}}, "note": "Where two headings read alike, the source gives them in different places."}
{"compound": "COC(=O)[C@@H](C)N(C(=O)Cc1ccccc1)c1c(C)cccc1C", "note": "[Benalaxyl-M]", "values": [{"measurement": "Lesion area ratio in the test on preventive effect against cucumber downy mildew", "setting": "cucumber downy mildew [1]; Benalaxyl-M 25 ppm alone", "value": 100, "unit": "%"}, {"measurement": "Lesion area ratio in the test on curative effect against cucumber downy mildew", "setting": "cucumber downy mildew [2]; Benalaxyl-M 400 ppm alone", "value": 100, "unit": "%"}, {"measurement": "Disease severity in the test on preventive effect against tomato late blight", "setting": "tomato late blight [3]; Benalaxyl-M 25 ppm alone", "value": 100}, {"measurement": "Disease severity in the test on preventive effect against tomato late blight", "setting": "tomato late blight [3]; Benalaxyl-M 100 ppm alone", "value": 100}, {"measurement": "Disease severity in the test on preventive effect against tomato late blight", "setting": "tomato late blight [4]; Benalaxyl-M 50 ppm alone", "value": 94}, {"measurement": "Disease severity in the test on preventive effect against tomato late blight", "setting": "tomato late blight [4]; Benalaxyl-M 200 ppm alone", "value": 75}, {"measurement": "Disease severity in the test on preventive effect against grape downy mildew", "setting": "Grape Downy Mildew; Benalaxyl-M 0.024 ppm alone", "value": 100}]}
{"compound": "Cc1ccc(-c2c(Cl)nc(C#N)n2S(=O)(=O)N(C)C)cc1", "note": "[Compound No. 1, 4-chloro-2-cyano-1-dimethylsulfamoyl-5-(4-methylphenyl) imidazole]", "values": [{"measurement": "Lesion area ratio in the test on preventive effect against cucumber downy mildew", "setting": "cucumber downy mildew [1]; Compound No. 1 0.2 ppm alone", "value": 10, "unit": "%"}, {"measurement": "Lesion area ratio in the test on curative effect against cucumber downy mildew", "setting": "cucumber downy mildew [2]; Compound No. 1 50 ppm alone", "value": 100, "unit": "%"}, {"measurement": "Lesion area ratio in the test on curative effect against cucumber downy mildew", "setting": "cucumber downy mildew [2]; Compound No. 1 200 ppm alone", "value": 100, "unit": "%"}, {"measurement": "Disease severity in the test on preventive effect against tomato late blight", "setting": "tomato late blight [3]; Compound No. 1 1.6 ppm alone", "value": 19}, {"measurement": "Disease severity in the test on preventive effect against tomato late blight", "setting": "tomato late blight [3]; Compound No. 1 6.3 ppm alone", "value": 12}, {"measurement": "Disease severity in the test on preventive effect against tomato late blight", "setting": "tomato late blight [4]; Compound No. 1 50 ppm alone", "value": 100}, {"measurement": "Disease severity in the test on preventive effect against tomato late blight", "setting": "tomato late blight [4]; Compound No. 1 400 ppm alone", "value": 94}, {"measurement": "Disease severity in the test on preventive effect against grape downy mildew", "setting": "Grape Downy Mildew; Compound No. 1 0.098 ppm alone", "value": 100}, {"measurement": "Disease severity in the test on preventive effect against grape downy mildew", "setting": "Grape Downy Mildew; Compound No. 1 0.39 ppm alone", "value": 40}]}
{"compound": "COc1ccc(/C(=C\\C(=O)N2CCOCC2)c2ccc(F)cc2)cc1OC", "note": "[Flumorph]", "values": [{"measurement": "Lesion area ratio in the test on preventive effect against cucumber downy mildew", "setting": "cucumber downy mildew [1]; Flumorph 12.5 ppm alone", "value": 20, "unit": "%"}, {"measurement": "Lesion area ratio in the test on curative effect against cucumber downy mildew", "setting": "cucumber downy mildew [2]; Flumorph 400 ppm alone", "value": 90, "unit": "%"}, {"measurement": "Disease severity in the test on preventive effect against tomato late blight", "setting": "tomato late blight [3]; Flumorph 6.3 ppm alone", "value": 100}, {"measurement": "Disease severity in the test on preventive effect against tomato late blight", "setting": "tomato late blight [3]; Flumorph 12.5 ppm alone", "value": 100}, {"measurement": "Disease severity in the test on preventive effect against tomato late blight", "setting": "tomato late blight [4]; Flumorph 50 ppm alone", "value": 100}, {"measurement": "Disease severity in the test on preventive effect against tomato late blight", "setting": "tomato late blight [4]; Flumorph 200 ppm alone", "value": 37}, {"measurement": "Disease severity in the test on preventive effect against grape downy mildew", "setting": "Grape Downy Mildew; Flumorph 1.6 ppm alone", "value": 40}]}
